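Exposure lasted 48 hours, with cells grown in 96-well plates and compounds tested at five concentrations. GI50 marks 50% less growth. At the TGI there is no net growth.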
Key:
Assay in all cases: inhibition of tumour cell growth, NCI panel, 48 h
K-562 leukemia = test system: K-562 leukemia
MOLT-4 leukemia = test system: MOLT-4 leukemia
SR leukemia = test system: SR leukemia
HOP-62 NSCLC = test system: HOP-62 NSCLC
LOX IMVI melanoma = test system: LOX IMVI melanoma
A549 NSCLC = test system: A549 NSCLC
NCI-H23 lung = test system: NCI-H23 lung
HCC-2998 colon = test system: HCC-2998 colon
SNB-19 CNS = test system: SNB-19 CNS
T-47D breast = test system: T-47D breast

Row | SMILES | GI50 (K-562 leukemia) | TGI (K-562 leukemia) | GI50 (MOLT-4 leukemia) | TGI (MOLT-4 leukemia) | GI50 (SR leukemia) | TGI (SR leukemia) | GI50 (HOP-62 NSCLC) | TGI (HOP-62 NSCLC) | GI50 (LOX IMVI melanoma) | TGI (LOX IMVI melanoma) | GI50 (A549 NSCLC) | TGI (A549 NSCLC) | GI50 (NCI-H23 lung) | TGI (NCI-H23 lung) | TGI (HCC-2998 colon) | TGI (SNB-19 CNS) | GI50 (T-47D breast) | TGI (T-47D breast) | GI50 (HCC-2998 colon) | GI50 (SNB-19 CNS)
1 | CN(C)C(=O)c1cnc2oc3ccc(O)cc3c2c1-c1ccccc1 | > 25 µM | > 25 µM | > 25 µM | > 25 µM | 3.78 µM | > 25 µM | > 25 µM | > 25 µM | > 25 µM | > 25 µM | > 25 µM | > 25 µM | 11.5 µM | > 25 µM |  |  |  |  |  | 
2 | COC(=O)C(CC1=C(O)Nc2ccccc2N1)/C(=N/NC(N)=O)C(=O)Nc1ccccc1C (configuration not stated) |  | > 100 µM |  | > 100 µM |  | 48.5 µM |  | > 100 µM |  | 35 µM |  | > 100 µM |  | > 100 µM | > 100 µM | > 100 µM |  |  |  | 
3 | CCN(CC)c1oc(N(CC)CC)c(C(=O)Nc2ccccn2)c(=O)c1C(C)=O |  | > 100 µM |  | > 100 µM |  | > 100 µM |  | > 100 µM |  |  |  | > 100 µM |  | > 100 µM |  | > 100 µM |  |  |  | 
4 | CN(C)C(=O)c1ccc([N+](=O)[O-])cc1 |  | > 100 µM |  | > 100 µM |  | > 100 µM |  | > 100 µM |  | > 100 µM |  | > 100 µM |  | > 100 µM | > 100 µM | > 100 µM |  |  |  | 
5 | Oc1c(Cl)c(Cl)c(O)c2c1CCCC2 |  |  |  |  |  |  |  | 51.6 µM |  | 78.6 µM |  | 72.6 µM |  | 40.8 µM | 30.6 µM | 30.5 µM |  |  |  | 
6 | O=C(O)C(CS)NCc1c2ccccc2nc2ccccc12 (configuration not stated) |  | > 100 µM |  | > 100 µM |  | 97.3 µM |  |  |  | > 100 µM |  | > 100 µM |  | > 100 µM | > 100 µM | > 100 µM |  |  |  | 
7 | COc1cc(/C=C/C(=O)c2ccc(F)cc2)ccc1OCCCN1CCN(CC(=O)Nc2ccc(Cl)cc2C(=O)c2ccccc2Cl)CC1 | 3.6 µM | > 100 µM | 3.23 µM | > 100 µM |  |  | 15.5 µM | 31.9 µM | 3.97 µM | 14.6 µM | 15.9 µM | > 100 µM | 17.4 µM | > 100 µM | 40.1 µM | 49.2 µM | 21.4 µM | > 100 µM | 16.6 µM | 18.9 µM
8 | CC(=O)O[C@H]1CCC2[C@@H]3CCC4c5nonc5CC[C@]4(C)C3CC[C@@]21C (some centres not stated) | > 100 µM | > 100 µM |  | > 10 µM |  |  |  | > 10 µM |  | > 10 µM |  | > 10 µM |  | > 10 µM | > 100 µM | > 10 µM |  |  | > 100 µM | 
9 | O=C(N/C(=C\c1ccc(/C=C(\NC(=O)c2ccccc2)c2nc3ccccc3[nH]2)cc1)c1nc2ccccc2[nH]1)c1ccccc1 |  | > 100 µM |  | > 100 µM |  |  |  | > 100 µM |  | > 100 µM |  | > 100 µM |  | > 100 µM | > 100 µM | > 100 µM |  |  |  | 
10 | [O-]c1ccccc1/C=N/C(/N=C/c1ccccc1[O-])c1ccccc1O.[O-]c1ccccc1/C=N/C(/N=C/c1ccccc1[O-])c1ccccc1O.[Zr+4] | 44.3 µM | > 100 µM | 25.2 µM | > 100 µM |  |  | 34.2 µM | > 100 µM |  |  | 40 µM | > 100 µM |  |  | > 100 µM | > 100 µM | 28.3 µM | > 100 µM | 34.7 µM | 13.1 µM
11 | CC(=O)[CH-]C(=O)c1ccccc1.CC(=O)[CH-]C(=O)c1ccccc1.CC(=O)[CH-]C(=O)c1ccccc1.[In+3] | 31 µM | > 100 µM |  |  |  |  |  |  | 11 µM | > 100 µM | 48.8 µM | > 100 µM | 30.9 µM | > 100 µM |  | > 100 µM |  |  |  | > 100 µM
12 | O=C1/C(=N\O)S(=O)(=O)c2ccccc21 |  | > 100 µM |  | > 100 µM |  | > 100 µM |  | > 100 µM |  | > 100 µM |  | > 100 µM |  |  | > 100 µM | > 100 µM |  |  |  | 
13 | CCc1cccc(C)c1NC(=O)C1=C(C)NC(C)=C(C(=O)Nc2c(C)cccc2CC)C1c1ccc2c(c1)OCO2 |  | 92.3 µM |  | 72.8 µM |  |  |  | 36.9 µM |  | 42.5 µM |  | 43.6 µM |  | 31.4 µM | 33.8 µM | 96.4 µM |  |  |  | 
14 | O=S(=O)(c1cccc2c(I)cccc12)N1CCCNCC1 | 10.9 µM | 30.4 µM | 10.9 µM | 27.6 µM |  |  | 16.5 µM | 34.4 µM | 18.3 µM | 36.6 µM | 37 µM | > 100 µM | 17 µM | 34 µM | 35.1 µM | 42.8 µM | 25.4 µM | 64.9 µM | 17.4 µM | 20.9 µM
15 | Cc1[nH]c(=O)nc(Nc2ccc(Cl)cc2)c1C(=O)N1CCN(CCO)CC1 | > 100 µM | > 100 µM | > 100 µM | > 100 µM |  |  | 27.2 µM | 77.4 µM | > 100 µM | > 100 µM | > 100 µM | > 100 µM | 76 µM | > 100 µM | > 100 µM | > 100 µM | 84.2 µM | > 100 µM | > 100 µM | 33.8 µM
16 | CCc1ccccc1NC(=O)/C(N=O)=C(/C)O |  | > 100 µM |  | > 100 µM |  |  |  | > 100 µM |  | > 100 µM |  | > 100 µM |  | > 100 µM | > 100 µM | > 100 µM |  |  |  | 
17 | COc1cc([N+](=O)[O-])c(OC)cc1-c1nc2sccn2c1/C=N/N=C(N)N | 1.03 µM | > 100 µM | > 100 µM | > 100 µM |  |  | 13.6 µM | 46.9 µM | 17.9 µM | 41.5 µM | 20.8 µM | 68.7 µM | 14.8 µM | 71.9 µM |  | > 100 µM | 22.2 µM | > 100 µM |  | 8.52 µM
18 | O=C(NC(=Nc1ccccc1)SCCSC(=Nc1ccccc1)NC(=O)c1cccs1)c1cccs1 |  | > 100 µM |  | > 100 µM |  |  |  | > 100 µM |  | > 100 µM |  | > 100 µM |  | > 100 µM | > 100 µM | > 100 µM |  |  |  | 

Source: PubChem BioAssay (NCI)
